Measurements taken from ChEMBL document CHEMBL1201862, “PubChem BioAssay data set” (2004).
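Each compound was tested at five concentrations against cells in 96-well plates for 48 hours. GI50 marks 50% less growth.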 The source made the active and inactive calls. Rule as the data show it: active = GI50 up to about 1.1 µM and inactive = higher.

Experiments:
Assay in all cases: NCI-60 cell line screen, 48 h
[1] = tested on: UACC-62
[2] = tested on: Malme-3M
[3] = tested on: SK-MEL-5
[4] = tested on: SNB-75
[5] = tested on: ACHN
[6] = tested on: CAKI-1
[7] = tested on: IGROV-1
[8] = tested on: SF-295
[9] = tested on: UACC-257
[10] = tested on: 786-0
[11] = tested on: COLO 205
[12] = tested on: DU-145
[13] = tested on: UO-31
[14] = tested on: BT-549
[15] = tested on: RPMI-8226
[16] = tested on: MDA-N
[17] = tested on: K562
[18] = tested on: M14
[19] = tested on: Hs-578T

SMILES | GI50 [1] | GI50 [2] | GI50 [3] | GI50 [4] | GI50 [5] | GI50 [6] | GI50 [7] | GI50 [8] | GI50 [9] | GI50 [10] | GI50 [11] | GI50 [12] | GI50 [13] | GI50 [14] | GI50 [15] | GI50 [16] | GI50 [17] | GI50 [18] | GI50 [19]
COC(=O)[C@@]12CCCC(=O)[C@@H]1[C@H]1CCCC[C@H]12 | > 100 µM (inactive) | > 100 µM (inactive) | > 100 µM (inactive) | > 100 µM (inactive) | > 100 µM (inactive) | > 100 µM (inactive) | > 100 µM (inactive) | > 100 µM (inactive) | > 100 µM (inactive) | > 100 µM (inactive) | > 100 µM (inactive) | > 100 µM (inactive) | > 100 µM (inactive) | > 100 µM (inactive) | > 100 µM (inactive) | > 100 µM (inactive) | 35.8 µM (inactive) | > 100 µM (inactive) | 
CC(C)(C)[Si](C)(C)OCC1OC(n2ccc(=O)[nH]c2=O)C(O[Si](C)(C)C(C)(C)C)/C1=C/C#N (configuration not stated) | 1.07 µM (active) | 12.8 µM (inactive) | 3.07 µM (inactive) | 46.6 µM (inactive) | 5.7 µM (inactive) | 8.43 µM (inactive) | 40.8 µM (inactive) | 0.67 µM (active) | 7.19 µM (inactive) | 4.37 µM (inactive) | 2.61 µM (inactive) | 5.48 µM (inactive) | 4.89 µM (inactive) |  | 3.71 µM (inactive) | 4.76 µM (inactive) | 1.76 µM (inactive) | 10.9 µM (inactive) | 5.73 µM (inactive)
COC1CC2CCC(C)[C@](O)(O2)C(=O)C(=O)N2CCCCC2C(=O)OC(C(C)CC2CCC(O)C(OC)C2)CC(=O)C(C)C=C(C)C(OC(=O)CN(C)C)C(OC)C(=O)C(C)CC(C)/C=C/C=C/C=C\1C (some centres not stated) | < 0.01 µM (active) | < 0.01 µM (active) | 3.78 µM (inactive) | < 0.01 µM (active) | 0.0101 µM (active) |  |  | < 0.01 µM (active) | 11.3 µM (inactive) | 10.8 µM (inactive) | 11.3 µM (inactive) | 7.38 µM (inactive) | < 0.01 µM (active) | < 0.01 µM (active) | < 0.01 µM (active) |  | < 0.01 µM (active) | 7.43 µM (inactive) | < 0.01 µM (active)
COC1CC(n2ccc(=O)[nH]c2=O)OC1CO (configuration not stated) | > 100 µM (inactive) | > 100 µM (inactive) | > 100 µM (inactive) |  | > 100 µM (inactive) | > 100 µM (inactive) | > 100 µM (inactive) | > 100 µM (inactive) | > 100 µM (inactive) | > 100 µM (inactive) | > 100 µM (inactive) | > 100 µM (inactive) | > 100 µM (inactive) |  |  | > 100 µM (inactive) | > 100 µM (inactive) | > 100 µM (inactive) | 
